Assay: xn = mol fraction of the nth substance listed
Conditions: 100 kPa

O + C[C@H](N)C(=O)[O-].C[N+](C)(C)CCO
x2 = 0
Conditions	viscosity [mPa·s]
288.09 K	1.08
289.33 K	1.05
290.56 K	1.02
291.75 K	0.98
292.93 K	0.96
294.1 K	0.93
295.28 K	0.9
297.64 K	0.86
298.81 K	0.84
301.17 K	0.8
302.34 K	0.78
303.52 K	0.77
304.69 K	0.75
305.87 K	0.74
308.22 K	0.71

C[C@H](N)C(=O)[O-].C[N+](C)(C)CCO + O
Conditions	viscosity [mPa·s]
287.92 K, x1 = 0.097	10.7
287.94 K, x1 = 0.198	60
288 K, x1 = 0.3748	345
288 K, x1 = 0.4948	710
288.02 K, x1 = 0.5975	1059
288.02 K, x1 = 0.8993	3070
288.06 K, x1 = 0.7994	2139
288.08 K, x1 = 0.692	1634
289.2 K, x1 = 0.198	57
289.22 K, x1 = 0.097	10.2
289.22 K, x1 = 0.3748	328
289.23 K, x1 = 0.2939	166
289.24 K, x1 = 0.4948	660
289.26 K, x1 = 0.8993	2817
289.29 K, x1 = 0.7994	1961
290.21 K, x1 = 1	4300
290.48 K, x1 = 0.198	53
290.48 K, x1 = 0.3748	300
290.5 K, x1 = 0.097	9.6
290.5 K, x1 = 0.4948	600
290.5 K, x1 = 0.5975	880
290.52 K, x1 = 0.8993	2510
290.54 K, x1 = 0.692	1293
291.71 K, x1 = 0.2939	140
291.71 K, x1 = 0.3748	274
291.72 K, x1 = 0.097	9.2
291.72 K, x1 = 0.198	50
291.72 K, x1 = 0.4948	540
291.72 K, x1 = 0.5975	790
291.73 K, x1 = 0.7994	1562
291.73 K, x1 = 0.8993	2231
291.74 K, x1 = 0.692	1150
292.02 K, x1 = 1	3052
292.32 K, x1 = 1	3520
292.91 K, x1 = 0.198	46
292.91 K, x1 = 0.2939	129
292.91 K, x1 = 0.3748	250
292.92 K, x1 = 0.7994	1393
292.92 K, x1 = 0.8993	1984
294.08 K, x1 = 1	2544
294.1 K, x1 = 0.198	43
294.1 K, x1 = 0.2939	119
294.1 K, x1 = 0.3748	230
294.1 K, x1 = 0.5975	650
294.1 K, x1 = 0.8993	1775
294.41 K, x1 = 1	2896
295.27 K, x1 = 0.097	8
295.27 K, x1 = 0.198	40.8
295.27 K, x1 = 0.2939	111
295.27 K, x1 = 0.3748	212
295.27 K, x1 = 0.4948	410
295.27 K, x1 = 0.5975	590
295.27 K, x1 = 0.692	840
295.27 K, x1 = 0.8993	1599
296.14 K, x1 = 1	2140
296.45 K, x1 = 0.097	7.7
296.45 K, x1 = 0.198	38.3
296.45 K, x1 = 0.2939	103
296.45 K, x1 = 0.3748	195
296.45 K, x1 = 0.5975	540
296.45 K, x1 = 0.692	760
296.45 K, x1 = 0.8993	1438
296.48 K, x1 = 1	2402
297.63 K, x1 = 0.198	36.2
297.63 K, x1 = 0.2939	96
297.63 K, x1 = 0.3748	181
297.63 K, x1 = 0.4948	347
297.63 K, x1 = 0.5975	490
297.63 K, x1 = 0.692	700
297.63 K, x1 = 0.7994	920
297.63 K, x1 = 0.8993	1302
298.2 K, x1 = 1	1806
298.54 K, x1 = 1	2000
298.8 K, x1 = 0.5975	450
298.8 K, x1 = 0.8993	1183
298.81 K, x1 = 0.097	7.1
298.81 K, x1 = 0.198	34.3
298.81 K, x1 = 0.3748	168
298.81 K, x1 = 0.4948	320
298.81 K, x1 = 0.692	630
299.98 K, x1 = 0.198	32.3
299.98 K, x1 = 0.2939	84
299.98 K, x1 = 0.4948	294
299.98 K, x1 = 0.5975	410
299.98 K, x1 = 0.692	580
299.98 K, x1 = 0.7994	760
299.98 K, x1 = 0.8993	1071
300.61 K, x1 = 1	1681
301.16 K, x1 = 0.097	6.6
301.16 K, x1 = 0.198	30.6
301.16 K, x1 = 0.2939	79
301.16 K, x1 = 0.3748	145
301.16 K, x1 = 0.4948	271
301.16 K, x1 = 0.5975	379
301.16 K, x1 = 0.7994	690
301.16 K, x1 = 0.8993	970
302.33 K, x1 = 0.198	29
302.33 K, x1 = 0.2939	74
302.33 K, x1 = 0.4948	251
302.33 K, x1 = 0.5975	348
302.33 K, x1 = 0.692	480
302.33 K, x1 = 0.7994	630
302.33 K, x1 = 0.8993	890
302.34 K, x1 = 0.097	6.4
302.34 K, x1 = 1	1310
302.66 K, x1 = 1	1421
303.51 K, x1 = 0.097	6.2
303.51 K, x1 = 0.198	27.6
303.51 K, x1 = 0.2939	69
303.51 K, x1 = 0.4948	233
303.51 K, x1 = 0.5975	322
303.51 K, x1 = 0.692	440
303.51 K, x1 = 0.8993	810
304.41 K, x1 = 1	1119
304.69 K, x1 = 0.097	6
304.69 K, x1 = 0.198	26.2
304.69 K, x1 = 0.2939	65
304.69 K, x1 = 0.3748	117
304.69 K, x1 = 0.4948	216
304.69 K, x1 = 0.5975	297
304.69 K, x1 = 0.692	410
304.69 K, x1 = 0.7994	530
304.69 K, x1 = 0.8993	740
305.86 K, x1 = 0.198	24.9
305.86 K, x1 = 0.2939	61
305.86 K, x1 = 0.5975	274
305.86 K, x1 = 0.692	375
305.86 K, x1 = 0.7994	480
305.87 K, x1 = 0.097	5.7
306.48 K, x1 = 1	960
306.78 K, x1 = 1	1030
307.04 K, x1 = 0.097	5.6
307.04 K, x1 = 0.198	23.7
307.04 K, x1 = 0.2939	58
307.04 K, x1 = 0.4948	186
307.04 K, x1 = 0.692	347
307.04 K, x1 = 0.7994	440
308.21 K, x1 = 0.4948	173
308.21 K, x1 = 0.5975	236
308.21 K, x1 = 0.692	321
308.22 K, x1 = 0.097	5.4
308.22 K, x1 = 0.198	22.6
308.22 K, x1 = 0.2939	54
308.22 K, x1 = 0.3748	96
308.22 K, x1 = 0.7994	410
308.22 K, x1 = 0.8993	570
308.54 K, x1 = 1	830
308.84 K, x1 = 1	880
310.61 K, x1 = 1	720
310.9 K, x1 = 1	760
312.67 K, x1 = 1	630
312.95 K, x1 = 1	660
314.74 K, x1 = 1	550
315.01 K, x1 = 1	570
316.82 K, x1 = 1	480
317.07 K, x1 = 1	500
318.91 K, x1 = 1	420
319.13 K, x1 = 1	440
321.04 K, x1 = 1	374
321.19 K, x1 = 1	387
323.25 K, x1 = 1	342
